Measured values: the NIST ThermoML archive (doi:10.1021/je025582+)

Conditions: Gas

FC(C(F)(F)F)C(F)(F)F [1,1,1,2,3,3,3-heptafluoropropane]
Conditions | mass density [kg/m3]
318.15 K, 122.2 kPa | 8.07
318.15 K, 167.7 kPa | 11.21
318.15 K, 230.1 kPa | 15.57
318.15 K, 312 kPa | 21.61
318.15 K, 421 kPa | 30.01
318.15 K, 561.3 kPa | 41.67
318.15 K, 734.2 kPa | 57.85
321.15 K, 123.2 kPa | 8.06
321.15 K, 169.3 kPa | 11.2
321.15 K, 232.2 kPa | 15.54
321.15 K, 315.4 kPa | 21.58
321.15 K, 425.5 kPa | 29.97
321.15 K, 568 kPa | 41.61
321.15 K, 744.1 kPa | 57.77
324.15 K, 124.4 kPa | 8.05
324.15 K, 170.9 kPa | 11.18
324.15 K, 234.2 kPa | 15.53
324.15 K, 318.6 kPa | 21.56
324.15 K, 430.2 kPa | 29.93
324.15 K, 574.9 kPa | 41.56
324.15 K, 754 kPa | 57.71
327.15 K, 125.7 kPa | 8.04
327.15 K, 172.6 kPa | 11.17
327.15 K, 236.2 kPa | 15.51
327.15 K, 321.9 kPa | 21.53
327.15 K, 434.8 kPa | 29.9
327.15 K, 581.5 kPa | 41.52
327.15 K, 763.9 kPa | 57.65
327.15 K, 982.1 kPa | 80.04
330.15 K, 126.8 kPa | 8.04
330.15 K, 132 kPa | 8.39
330.15 K, 174.3 kPa | 11.16
330.15 K, 181.5 kPa | 11.64
330.15 K, 238.5 kPa | 15.5
330.15 K, 248.3 kPa | 16.17
330.15 K, 325.2 kPa | 21.51
330.15 K, 338.6 kPa | 22.45
330.15 K, 439.5 kPa | 29.87
330.15 K, 457.7 kPa | 31.17
330.15 K, 588.3 kPa | 41.48
330.15 K, 611.2 kPa | 43.28
330.15 K, 774.3 kPa | 57.59
330.15 K, 803.6 kPa | 60.09
330.15 K, 998.1 kPa | 79.97
333.15 K, 128 kPa | 8.03
333.15 K, 175.9 kPa | 11.15
333.15 K, 240.7 kPa | 15.48
333.15 K, 328.6 kPa | 21.5
333.15 K, 444.3 kPa | 29.85
333.15 K, 595.3 kPa | 41.45
333.15 K, 784.6 kPa | 57.55
333.15 K, 1013.2 kPa | 79.91
336.15 K, 129 kPa | 8.03
336.15 K, 177.7 kPa | 11.14
336.15 K, 243.4 kPa | 15.47
336.15 K, 331.9 kPa | 21.49
336.15 K, 449.1 kPa | 29.83
336.15 K, 602.5 kPa | 41.42
336.15 K, 795.1 kPa | 57.52
336.15 K, 1029.1 kPa | 79.86
339.15 K, 130.1 kPa | 8.02
339.15 K, 179.3 kPa | 11.14
339.15 K, 245.7 kPa | 15.47
339.15 K, 334.9 kPa | 21.48
339.15 K, 454.4 kPa | 29.82
339.15 K, 609.6 kPa | 41.4
339.15 K, 804.6 kPa | 57.49
339.15 K, 1044.6 kPa | 79.83
339.15 K, 1310.5 kPa | 110.84
342.15 K, 131.3 kPa | 8.02
342.15 K, 181.1 kPa | 11.14
342.15 K, 248.2 kPa | 15.46
342.15 K, 338.6 kPa | 21.47
342.15 K, 459.3 kPa | 29.81
342.15 K, 616.9 kPa | 41.39
342.15 K, 815 kPa | 57.47
342.15 K, 1059.6 kPa | 79.8
342.15 K, 1333.9 kPa | 110.8
345.15 K, 132.5 kPa | 8.02
345.15 K, 182.4 kPa | 11.13
345.15 K, 250.2 kPa | 15.46
345.15 K, 341.9 kPa | 21.47
345.15 K, 464 kPa | 29.81
345.15 K, 624.2 kPa | 41.39
345.15 K, 826.2 kPa | 57.46
345.15 K, 1074.6 kPa | 79.79
345.15 K, 1358 kPa | 110.79
380.15 K, 269.4 kPa | 14.93
380.15 K, 369.5 kPa | 20.73
380.15 K, 503.4 kPa | 28.78
380.15 K, 683 kPa | 39.96
380.15 K, 918.3 kPa | 55.48
380.15 K, 1215.9 kPa | 77.04
380.15 K, 1582.9 kPa | 106.97
380.15 K, 2004.6 kPa | 148.52
380.15 K, 2446.1 kPa | 206.22
380.15 K, 2832.9 kPa | 286.34
